Reference: patent publication US20060089302A1, “Hsp70-derived peptides and uses thereof in the diagnosis and treatment of autoimmune diseases” (priority 2002, published 2006)
Where “and” joins values, the source holds several entries; their conditions need not be identical. Equal entries are not always repeated.

Experiments:
[1] = tested on: peripheral blood mononuclear cells (PBMC) / T-cells; assay: T-cell proliferation assay (3H-Thymidine incorporation, stimulation index); assay type: cell-based, human; settings: for T-cell reactivity to hsp70 peptide (epitope mapping): seven Type 1 Diabetes patients (P3, P16, P18, P20, P21, P23, P24), immunogenic when at least 3 out of 7 patients had S.I.≥2; for T-cell reactivity to hsp70 peptide (epitope mapping) / Number of Type 1 Diabetes subjects responding to the peptide: peptide 5-20 μg/ml; for T-cell proliferative response, S.I., Mean ± SD: group mean; for Number of Type 1 Diabetes subjects responding to the peptide: epitope mapping, seven subjects tested (p1: three of these plus two adult patients), S.I.≥2
[2] = tested on: serum IgG anti-hsp60, anti-hsp70, anti-hsp90, anti-tetanus toxoid; assay: Determination of auto-antibodies (antibody capture ELISA on antigen-coated plates); assay type: binding, human; settings: for IgG antibodies to the antigen in serum, Mean ± SD: group mean
Protocol: All of the serum samples that were collected were stored in aliquotes at −20° C. and thawed before each assay. Total human IgG anti-hsp60, anti-hsp70, and anti-hsp90, as well as anti-tetanus toxoid proteins were detected by the antibody capture-type enzyme immunoassay ELISA [Maggio, M. T. (1981) Enzyme Immunoassay, CRC Press, Boca Raton, USA]. 96-well micro titer plates (Dynatech) were coated with the protein according to the antibody being tested. Serum samples were distributed at dilutions in the range of 1:50 to 1:70 into the pre-coated wells for the protein detection assay. Thus, any IgG anti-hsp60, anti-hsp70, anti-hsp90, or anti-tetanus toxoid present should be bound by the immobilized peptide or protein. After washing off unbound material, a mouse monoclonal anti-human IgG antibody conjugated to alkaline phosphatase (AP) was added to the wells. After an additional washing step to remove any unbound anti-enzyme reagent, the AP substrate p-nitrophenyl phosphate (pNPP) solution was added. The intensity of the color developed was measured using an Anthos htll ELISA reader at λ=405 nm. The amount of antibody detected was represented as Units of Optical Density at λ=405 nm. Patients and control subjects were assayed in the same experiment.
The InStat 2.01 computer program was used for the statistical analysis. The results obtained from the samples of healthy individuals were used to determine the cutoff for each assay, which was established as the mean plus two standard deviations (SDs). […] The results were presented as the percentage of positive from the total tested group.
Levels of IgG antibodies to hsp60, hsp70, and hsp90 were measured in the sera of 20 Type 1 Diabetes children (P1-P5, P7-P21; Table 3A) and two control groups, 10 normoglycemic children (Table 3B) and 15 healthy adult blood donors (Table 3C). The level of the antibodies was scored as positive when it was greater than the cut-off level (cut-off levels were established based on the mean value of antibody levels from the normoglycemic children plus two standard deviations).

[3] = healthy subjects / healthy blood donors
[4] = Type 1 diabetes children (n=20), cut-off = mean of normoglycemic children plus two SD
[5] = healthy adult blood donors (n=15)
[6] = pediatric control serum donors / healthy children (n=10)

Substance: TIDDGIFEVKATAGDTHLGG (listed as Homo sapiens) [p15, human hsp70 residues 210-229]
- T-cell reactivity to hsp70 peptide (epitope mapping) [1]: triggered a T-cell response

Substance: hsp70: recombinant human hsp70 (StressGen, Canada), intact heat-shock protein
- T-cell proliferative response, S.I., Mean ± SD ([1]; Healthy subjects): 1.4±0.6 and 1.45±0.6 and 1.44 ± 0.6
- T-cell proliferative response, S.I., Mean ± SD ([1]; Type 1 Diabetes adult patients): 2.6+0.84 and 2.6 ± 0.84
- Responding subjects (S.I.≥2) ([1]; Type 1 Diabetes adult patients, within 12 weeks from diagnosis): about 86%
- Responding subjects (S.I.≥2) ([1]; Type 1 Diabetes children): 85%
- Responding subjects (S.I.≥2) ([1]; Type 2 Diabetes patients): 27%
- T-cell proliferative response, S.I., Mean ± SD ([1]; Type 2 Diabetes patients): 1.8±1.3 and 1.8 ± 1.26
- Responding subjects (S.I.≥2) [1, 3]: 14% and 13%
- IgG antibodies to the antigen in serum, Mean ± SD ([2]; Type 1 Diabetes children): 0.5 ± 0.41 Units of Optical Density at λ=405 nm
- Positive (antibody level above cut-off) [2, 4]: 30%
- Positive (antibody level above cut-off) ([2]; Type 1 diabetes children (n=20), cut-off = mean of normoglycemic children plus two SD, listed as Hsp70): 30%
- Positive (antibody level above cut-off) [2, 5]: 6%
- Positive (antibody level above cut-off) ([2]; healthy adult blood donors (n=15), listed as Hsp70): 6.6%
- IgG antibodies to the antigen in serum, Mean ± SD ([2]; healthy adult blood donors): 0.43 ± 0.1 Units of Optical Density at λ=405 nm
- Positive (antibody level above cut-off) [2, 6]: none
- Positive (antibody level above cut-off) ([2]; pediatric control serum donors / healthy children (n=10), listed as Hsp70): 0%
- IgG antibodies to the antigen in serum, Mean ± SD ([2]; pediatric control serum donors): 0.35 ± 0.09 Units of Optical Density at λ=405 nm

Substance: MAKAAAVGIDLGTTYSCVGV (listed as Homo sapiens) [p1, human hsp70 residues 1-20]
- Number of Type 1 Diabetes subjects responding to the peptide [1]: five
- T-cell reactivity to hsp70 peptide (epitope mapping) [1]: triggered a T-cell response

Substance: KEEIERMVQEAEKYKAEDEV (listed as Homo sapiens) [p35, human hsp70 residues 511-530]
- Number of Type 1 Diabetes subjects responding to the peptide [1]: five
- T-cell reactivity to hsp70 peptide (epitope mapping) [1]: triggered a T-cell response

Substance: LLLLDVAPLSLGLETAGGVM (listed as Homo sapiens) [p27, human hsp70 residues 391-410]
- Number of Type 1 Diabetes subjects responding to the peptide [1]: six out of seven
- T-cell reactivity to hsp70 peptide (epitope mapping) [1]: triggered a T-cell response

Substance: THLGGEDFDNRLVNHFVEEF (listed as Homo sapiens) [p16, human hsp70 residues 225-244]
- T-cell reactivity to hsp70 peptide (epitope mapping) [1]: triggered a T-cell response

Substance: Tetanus Toxoid: recall antigen Tetanus Toxoid (Connaught Lab. Inc, Penn., USA) [reference compound]
- T-cell proliferative response, S.I., Mean ± SD ([1]; Healthy subjects): 8.01 ± 9.3
- T-cell proliferative response, S.I., Mean ± SD ([1]; Healthy subjects, listed as tetanus toxoid): 9.4±6.4
- T-cell proliferative response, S.I., Mean ± SD ([1]; Type 1 Diabetes adult patients): 14.3 ± 22.86
- T-cell proliferative response, S.I., Mean ± SD ([1]; Type 1 Diabetes children): 17.2±16.1
- T-cell proliferative response, S.I., Mean ± SD ([1]; Type 1 Diabetes children, listed as T.T.): 17.2 ± 15.9
- T-cell proliferative response, S.I., Mean ± SD ([1]; Type 2 Diabetes patients): 4.4
- T-cell proliferative response, S.I., Mean ± SD ([1]; Type 2 Diabetes patients, listed as tetanus toxoid): 4.4±2.9
- Serum antibodies to control antigen, in words ([2]; Type 1 Diabetes and control groups): comparably high

Substance: hsp90: recombinant human hsp90 (StressGen, Canada), heat-shock protein
- T-cell proliferative response, S.I., Mean ± SD ([1]; Healthy subjects): 1.52±0.7
- T-cell response, in words ([1]; Type 1 Diabetes adult patients (Table 1D), tested after more than 12 weeks): No response
- T-cell proliferative response, S.I., Mean ± SD ([1]; Type 1 Diabetes adult patients): 1.4 ± 0.3
- Responding subjects (S.I.≥2) ([1]; Type 1 Diabetes children): 21%
- T-cell proliferative response, S.I., Mean ± SD ([1]; Type 1 Diabetes children): 1.7±1.2 and 1.7 ± 1.1
- Responding subjects (S.I.≥2) ([1]; Type 2 Diabetes patients): 9%
- T-cell proliferative response, S.I., Mean ± SD ([1]; Type 2 Diabetes patients): 1.6±1.4 and 1.6 ± 1.38
- Responding subjects (S.I.≥2) [1, 3]: 25%
- IgG antibodies to the antigen in serum, Mean ± SD ([2]; Type 1 Diabetes children): 0.47 ± 0.13 Units of Optical Density at λ=405 nm
- Positive (antibody level above cut-off) [2, 4]: 15%
- Positive (antibody level above cut-off) ([2]; Type 1 diabetes children (n=20), cut-off = mean of normoglycemic children plus two SD, listed as Hsp90): 15%
- Positive (antibody level above cut-off) [2, 5]: 6%
- Positive (antibody level above cut-off) ([2]; healthy adult blood donors (n=15), listed as Hsp90): 6.6%
- IgG antibodies to the antigen in serum, Mean ± SD ([2]; healthy adult blood donors): 0.46 ± 0.1 Units of Optical Density at λ=405 nm
- Positive (antibody level above cut-off) [2, 6]: none
- Positive (antibody level above cut-off) ([2]; pediatric control serum donors / healthy children (n=10), listed as Hsp90): 0%
- IgG antibodies to the antigen in serum, Mean ± SD ([2]; pediatric control serum donors): 0.43 ± 0.1 Units of Optical Density at λ=405 nm

Substance: KANKITITNDKGRLSKEEIE (listed as Homo sapiens) [p34, human hsp70 residues 496-515]
- T-cell reactivity to hsp70 peptide (epitope mapping) [1]: triggered a T-cell response

Substance: KRTLSSSTQASLEIDSLFEG (listed as Homo sapiens) [p19, human hsp70 residues 271-290]
- T-cell reactivity to hsp70 peptide (epitope mapping) [1]: triggered a T-cell response

Substance: PTKQTQIFTTYSDNQPGVLI (listed as Homo sapiens) [p29, human hsp70 residues 421-440]
- T-cell reactivity to hsp70 peptide (epitope mapping) [1]: triggered a T-cell response
